Source: US7279497B2, “Benzopyran derivatives substituted with secondary amines including imidazole, their preparation and pharmaceutical compositions containing them” (Korea Research Institute of Chemical Technology, priority 2002, dated 2007)

Tests used:
[1] = test system: Chick chorioallantoic membrane (CAM); assay: CAM (chorioallantoic membrane) assay; type: in vivo
Protocol: Chick chorioallantoic membrane (CAM) assays were performed to measure the inhibitory effects on angiogenesis in vivo of the compounds of the formula 1.
Fertilized chick eggs were incubated under constant humidified (90%) egg breeder at 37° C. On the third day of incubation, about 2 mL of egg albumin was aspirated by an 18-gauge hypodermic needle through the small hole drilled at the narrow end of the eggs, to detach the developing CAM from the shell. And the shell covering the air sac was punched out and removed by forcep, and the shell membrane on the floor of the air sac was peeled away. After more incubation of two more days, sample-loaded thermanox coverslips were air-dried, and applied to the CAM surface to test the angiogenic inhibition by the test compounds. Three days later, 1 to 2 mL of 10% fat emulsion (Intralipose) was injected into the chorioallantoic and observed avascular zone under a dissecting microscope. The negative control was implanted only thermanox coverslip, while the positive control was treated with retinoic acid (1 μg/egg). […] Independent experiment was repeated three times and at least more than 20 eggs in each experiment were used.

[2] = test system: ischemic hearts; assay: Cardioprotective activity in ischemic heart model of anesthetized rats; conditions: Rat in vivo, 0.3 mg/kg i.v.
Protocol: In order to determine whether the compounds of formula 1 are protective for ischemic hearts, experiments determining the anti-ischemic effects of the compounds on rats were conducted as follows. Male rats (350-450 g, obtained from the Experimental Animal Team of the Korea Research Institute of Chemical Technology) were anesthetized by the intraperitoneal injection of pentobarbital at a dose of 75 mg/kg. After trachetomy, the rats were rendered to respire artificially at a rate of 60/min with a stroke volume of 10 ml/kg. Cannulars were inserted into the fermoral vein and the fermoral artery and used for drug administration and blood pressure measurement, respectively. In the ischemic myocardial injury models, the body temperature has an important influence on the results. To avoid the change in the body temperature, a body temperature measuring probe was inserted into the rectum of each rat and the body temperature was constantly kept at 37° C. with the aid of a homeothermic blanket control unit. Afterwards, during testing, a continuous measurement was made of the mean arterial blood pressures and heart rates from the rats. For the measurement of the blood pressure, a pressure transducer (Statham P23XL, Grass Ins., MA, U.S.A.) was used. The heart rate was measured by a tachometer (ECG/RATE Coupler, Hugo Sachs Electronic, German) identified as Biotachometer. In addition, all of the changes occurring were continuously recorded through the Gould 2000 chart recorder ([…] Linearcorder W R 3310, Hugo Sachs Electronic). The left coronary artery was occluded according to the Selye H. method as follows. The rats underwent a left thoracotomy operation for partial opening of the chest and the right-side chest was pressurized by the middle finger of the left hand to push the heart out. Immediately after the left anterior descending coronary artery hereinafter referred to as (LAD) was carefully stitched using a suture needle with 5-0 silk ligature, the heart was then repositioned in the thoracic cavity while both ends of the ligature were situated outside. The opposite ligature ends were passed through a PE tube (PE100, 2.5 cm) and allowed to stand loose for 20 min for stabilization. Via the cannula inserted into the femoral vein, vehicles or drugs were administered into the rats which were rendered to stand for 30 min in order to sufficiently elicit the efficacies of the drugs. […] From the images input into the computer, the area of the normal blood stream tissue region which appeared blue in a computer monitor and the area which appeared colorless were measured. The percentage of the colorless area to the total area of each slice was calculated and multiplied by the weight of each slice to determine the area at risk (AAR) of each slice. […]

[3] = test system: SPF SD rats; conditions: rat, in vivo, po;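 also: Six-week-old animals, two per group, followed across an observation period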
[4] = test system: HUVECs (Human umbilical vein endothelial cells); assay: Inhibitory effects on HUVEC tube formation; type: cell-based;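 also: from minus no inhibition up to plus-plus-plus complete inhibition versus vehicle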
In short: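 HUVECs within passage 5 were plated on bFGF-reduced polymerized Matrigel and incubated with or without compound. Tube formation assessed as changes in cell morphology by phase-contrast microscopy and photography.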

SMILES: COC(OC)[C@@]1(C)Oc2ccc([N+](=O)[O-])cc2[C@@H](N(Cc2ncc[nH]2)c2ccc(Cl)cc2)[C@@H]1O [Example 1, (2S,3S,4R)-3,4-dihydro-2-dimethoxymethyl-3-hydroxy-2-methyl-6-nitro-4-[N-(4-chlorophenyl)-N-(1H-imidazol-2-ylmethyl)amino]-2H-1-benzopyran]
- % Inhibition (positive eggs) ([1]; 0.5 μM/egg): 62%
- % Inhibition (positive eggs) ([1]; 1.5 μg/egg): 84%
- AAR/LV (%) [2]: 33.4%
- IZ/AAR (%) [2]: 41.2%
- clinical symptoms, body weight and mortality [3]: no significant changes
- Tube formation ([4]; 10 μM): +
- Tube formation ([4]; 50 μM): +
- Tube formation ([4]; 100 μM): ++
